The values that follow come from US20240166643A1, “IMIDAZO[1,2-A]PYRIDINE COMPOUNDS AND THEIR USE IN THERAPY” (Imperial College Innovations Limited, priority 2020, published 2024).

Test [1] has as its target Plasmodium vivax (Pv) NMT (Plasmodium vivax (strain Salvador I), UniProt A5K1A2). The experiment in a line: biochemical.
The subject of test [2] is Plasmodium falciparum 3D7. Description: SYBR Green assay, Plasmodium falciparum strain 3D7. It counts as cell-based. Conditions: P. falciparum strain 3D7, 96 h incubation, read-out: Pf EC50 strain 3D7.
Protocol: Assay (g): SYBR Green Assay
EC50 values for Plasmodium falciparum (Pf) NMT strain 3D7 or NF54 were measured for certain compounds of the invention using an assay utilising SYBR Green dye. The assay for NMT strain 3D7 was carried out as follows:
Synchronous Plasmodium falciparum 3D7 late stage trophozoites at 33-36 h were used. Final parasitemia and haematocrit were between 0.1-0.2% and 2% respectively. Red blood cells used for the assay were centrifuged to remove the buffy coat and washed twice in Roswell Park Memorial Institute (RPMI) Media 1640 so that no white blood cells were present. The culture medium contained RPMI 1640 with 5 g/L Albumax, 0.025 g/L gentamycin and 0.292 g/L L-glutamine.
Sterile 96 well black tissue culture plates (Costar) were used routinely for every assay. […] Chloroquine was used as a standard with ten times reduced concentrations range as above. Two sets of control were used in duplicate wells, one set with no added compound of the invention or standard (positive control) and one with uninfected red blood cells (negative control).
The plates were incubated at 37° C. for 48 h in a gas chamber flushed with 5% CO2, 5% O2 and 90% N2. After 48 h supernatants were taken out from each well and replaced with fresh drug and incubated for a further 48 h in the same manner. At the end of the 96 h incubation, 25 μL of SYBR Green I dye (SYBR Green I nucleic acid gel stain 10,000×, in DMSO from Invitrogen) in lysis buffer (1 μL dye to 1 mL lysis buffer) was added to each well and stored overnight at −20° C. The lysis buffer contained Tris (20 mM, pH 8.0), EDTA (2 mM), Saponin (0.16%) and Triton X-100 (1.6% v/v).
Plates were warmed to room temperature and fluorescence intensity was measured with a FLUOstar Omega Microplate fluorescence reader (BMG Labtech). Values were expressed in relative fluorescence units. Binding of SYBR Green is specific for parasite DNA as mature erythrocytes lack DNA and RNA. Fluorescence intensity unit was converted to percentage (%) of growth as follows:
% growth=(culture under drug)−(uninfected RBC)/(culture with no drug)−(uninfected RBC)×100
and the EC50 value was determined.
In the next test the target is Human NMT1 (HsNMT1) (Homo sapiens, UniProt P30419). The experiment in a line: biochemical.

SMILES strings stand for the structures.

Sequence of Plasmodium vivax (Pv) NMT (A5K1A2 1-410): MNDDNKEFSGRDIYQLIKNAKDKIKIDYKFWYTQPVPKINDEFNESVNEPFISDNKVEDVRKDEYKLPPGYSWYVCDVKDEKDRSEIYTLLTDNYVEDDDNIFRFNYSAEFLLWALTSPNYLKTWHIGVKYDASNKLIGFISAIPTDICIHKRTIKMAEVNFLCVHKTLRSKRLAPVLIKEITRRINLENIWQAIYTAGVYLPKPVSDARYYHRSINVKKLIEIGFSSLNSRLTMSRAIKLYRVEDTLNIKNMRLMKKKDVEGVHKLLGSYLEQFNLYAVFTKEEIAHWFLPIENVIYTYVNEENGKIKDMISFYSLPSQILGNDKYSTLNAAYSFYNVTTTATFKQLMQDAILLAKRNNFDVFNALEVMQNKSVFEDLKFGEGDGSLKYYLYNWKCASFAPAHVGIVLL
Sequence of Human NMT1 (HsNMT1) (P30419 whole entry, looked up): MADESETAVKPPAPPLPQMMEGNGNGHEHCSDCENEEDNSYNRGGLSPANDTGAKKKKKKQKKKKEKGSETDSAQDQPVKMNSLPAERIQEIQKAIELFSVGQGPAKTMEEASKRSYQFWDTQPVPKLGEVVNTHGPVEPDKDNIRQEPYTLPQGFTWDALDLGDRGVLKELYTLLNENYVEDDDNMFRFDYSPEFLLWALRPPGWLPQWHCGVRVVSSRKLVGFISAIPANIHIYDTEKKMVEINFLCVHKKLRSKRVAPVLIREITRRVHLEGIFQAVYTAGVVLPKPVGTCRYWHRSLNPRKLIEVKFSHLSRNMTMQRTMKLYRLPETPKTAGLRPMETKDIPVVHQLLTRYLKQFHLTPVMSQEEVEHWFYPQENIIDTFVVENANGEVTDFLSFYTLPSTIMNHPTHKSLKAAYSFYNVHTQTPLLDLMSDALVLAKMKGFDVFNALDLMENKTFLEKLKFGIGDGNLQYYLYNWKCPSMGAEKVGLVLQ

Take `O=C(NCc1cnc2ccccn12)C1CN(c2nc(N3CCCNCC3)ncc2Cl)C1` [Example 5]: the concentration for half-maximal inhibition (IC50) in test [1] is 14 nM. In test [2], the EC50 was 2500 nM.
Consider `O=C(NCc1cnc2cc(F)ccn12)C1CN(c2nc(N3CCCNCC3)ncc2Cl)C1` [Example 21], for which the IC50 against Human NMT1 (HsNMT1) is 50 nM; in test [1], 17 nM. For the same compound, in test [2], the EC50 turned out to be 800 nM.
With `CC1CN(c2ncc(Cl)c(N3CC(C(=O)NCc4cnc5ccccn45)C3)n2)CCN1` (stereo not shown) [Example 29], the concentration for half-maximal inhibition (IC50) is 79 nM at Human NMT1 (HsNMT1) and 18 nM in test [1]. The concentration giving a half-maximal response (EC50) in test [2] was found to be 620 nM.
Take `CC(NC(=O)C1CN(c2nc(N3CCNCC3)ncc2Cl)C1)c1cnc2ccccn12` (stereo not shown) [Example 30]: the IC50 at Human NMT1 (HsNMT1) was 26 nM; in test [1] it was 8.5 nM. The EC50 in test [2] amounted to 960 nM.
As for `CC(C)(NC(=O)C1CN(c2nc(N3CCNCC3)ncc2F)C1)c1cnc2ccccn12` [Example 32], inhibition in test [1] was half-maximal at 9.1 nM (IC50). Further, the 50% effective concentration (EC50) in test [2] came out at 64 nM.
As for `COc1cnc(N2CCNCC2)nc1N1CC(C(=O)NC(C)(C)c2cnc3ccccn23)C1` [Example 34], in test [1], the midpoint of inhibition, the IC50, lay at 9.1 nM. Further, the half-maximal effective concentration (EC50) in test [2] stood at 140 nM.
`C[C@H]1CN(c2ncc(Cl)c(N3CC(C(=O)NC(C)(C)c4cnc5ccccn45)C3)n2)CCN1` [Example 37]: the IC50 worked out at 7.9 nM on Human NMT1 (HsNMT1) and 8.4 nM in test [1]. The EC50 in test [2] worked out at 27 nM.
Turning to `C[C@H]1CN(c2ncc(F)c(N3CC(C(=O)NC(C)(C)c4cnc5ccccn45)C3)n2)CCN1` [Example 38], 14 nM corresponded to half-maximal inhibition in test [1] (IC50). For the same compound, in test [2], the concentration giving a half-maximal response (EC50) came out at 150 nM.
In the case of `CN(c1ncc(F)c(N2CC(C(=O)NC(C)(C)c3cnc4ccccn34)C2)n1)C1CCNC1` (stereo not shown) [Example 40], the values for the half-inhibitory concentration (IC50) (against Human NMT1 (HsNMT1); in test [1]) were 160 nM and 18 nM, respectively. Moreover, the EC50 in test [2] was determined as 250 nM.
Turning to `CC1CN(c2ncc(Cl)c(N3CC(C(=O)NC(C)(C)c4cnc5ccccn45)C3)n2)C[C@@H](C)N1` (stereo partly shown) [Example 46], the EC50 in test [2] was 57 nM.
In the case of `CC1CN(c2ncc(F)c(N3CC(C(=O)NC(C)(C)c4cnc5ccccn45)C3)n2)C[C@@H](C)N1` (stereo partly shown) [Example 47], the IC50 at Human NMT1 (HsNMT1) is 43 nM; in test [1], 12.2 nM. For the same compound, the EC50 in test [2] was 140 nM.
On the same counts, the results for `CC1CN(c2ncc(F)c(N3CC(C(=O)NC(C)(C)c4cnc5ccccn45)C3)n2)C[C@H](C)N1` (stereo partly shown) [Example 49] are 14 nM, 8.4 nM and 57 nM.
With `CN1CCC(N(C)c2ncc(F)c(N3CC(C(=O)NC(C)(C)c4cnc5ccccn45)C3)n2)C1` (stereo not shown) [Example 58], the results for the IC50 (against Human NMT1 (HsNMT1); in test [1]) were 37 nM and 13 nM, respectively. Besides, in test [2], the EC50 worked out at 410 nM.
As for `COc1cnc(N2CCCN(C)CC2)nc1N1CC(C(=O)NC(C)(C)c2cnc3ccccn23)C1` [Example 62], the 50% inhibitory concentration (IC50) was found to be 5 nM on Human NMT1 (HsNMT1) and 6 nM in test [1]. Further, in test [2], the EC50 is 11 nM.
Compound `COc1cnc(N2CCN(C)CC2)nc1N1CC(C(=O)NC(C)(C)c2cnc3ccccn23)C1` [Example 63] came in with an IC50 in test [1] of 71 nM. Moreover, the EC50 in test [2] came out at 180 nM.
For the compound `CN1CCN(c2ncc(F)c(N3CCC(C(=O)NC(C)(C)c4cnc5ccccn45)C3)n2)CC1` (stereo not shown) [Example 64], the half-inhibitory concentration (IC50) was found to be 190 nM at Human NMT1 (HsNMT1) and 20 nM in test [1]. For the same compound, in test [2], the 50% effective concentration (EC50) was found to be 850 nM.
For `C[C@@H]1CN(C)CCN1c1ncc(Cl)c(N2CC(C(=O)NC(C)(C)c3cnc4ccccn34)C2)n1` [Example 68], the figures for the IC50 (on Human NMT1 (HsNMT1); in test [1]) were 88 nM and 32 nM, respectively. In addition, in test [2], the concentration for a half-maximal effect (EC50) came to 74 nM.
In the case of `CC1NCCN(c2ncc(Cl)c(N3CC(C(=O)NC(C)(C)c4cnc5ccccn45)C3)n2)C1C` (stereo not shown) [Example 79], in test [2], the EC50 worked out at 2.2 nM.
With `C[C@H]1CN(c2ncc(F)c(N3CC(C(=O)NC(C)(C)c4cnc5ccccn45)C3)n2)CCN1C` [Example 82, 1-{2-[(3S)-3,4-dimethylpiperazin-1-yl]-5-fluoropyrimidin-4-yl}-N-(2-{imidazo[1,2-a]pyridin-3-yl}propan-2-yl)azetidine-3-carboxamide], the half-maximal inhibitory concentration (IC50) is 100 nM against Human NMT1 (HsNMT1) and 43 nM in test [1]. For the same compound, in test [2], the EC50 is 94 nM.
As to `C[C@H]1CN(c2ncc(Cl)c(N3CC(C(=O)NC(C)(C)c4cnc5ccccn45)C3)n2)CCN1C` [Example 83, 1-{5-chloro-2-[(3S)-3,4-dimethylpiperazin-1-yl]pyrimidin-4-yl}-N-(2-{imidazo[1,2-a]pyridin-3-yl}propan-2-yl)azetidine-3-carboxamide], in test [1], the IC50 came out at 10 nM. Moreover, the concentration for a half-maximal effect (EC50) in test [2] came out at 150 nM.
`C[C@@H]1CN(c2ncc(F)c(N3CCC(C(=O)NC(C)(C)c4cnc5ccccn45)C3)n2)CCN1C` (stereo partly drawn) [Example 86, 1-{2-[(3R)-3,4-dimethylpiperazin-1-yl}-5-fluoropyrimidin-4-yl}-N-(2-{imidazo[1,2-a]pyridin-3-yl}propan-2-yl)pyrrolidine-3-carboxamide]: the concentration for half-maximal inhibition (IC50) was 39 nM on Human NMT1 (HsNMT1) and 7 nM in test [1]. Further, the EC50 in test [2] amounted to 200 nM.
On to `COc1cnc(N2C[C@@H](C)N(C)[C@H](C)C2)nc1N1CC(C(=O)NC(C)(C)c2cnc3ccccn23)C1` [Example 91, N-(2-{imidazo[1,2-a]pyridin-3-yl}propan-2-yl)-1-{5-methoxy-2-[(3R,5R)-3,4,5-trimethylpiperazin-1-yl]pyrimidin-4-yl}azetidine-3-carboxamide], for which the EC50 in test [2] is 230 nM.
As to `COc1cnc(N2C[C@H](C)N(C)[C@@H](C)C2)nc1N1CC(C(=O)NC(C)(C)c2cnc3ccccn23)C1` [Example 94, N-(2-{imidazo[1,2-a]pyridin-3-yl}propan-2-yl)-1-{5-methoxy-2-[(3S,5S)-3,4,5-trimethylpiperazin-1-yl]pyrimidin-4-yl}azetidine-3-carboxamide], the concentration giving a half-maximal response (EC50) in test [2] amounted to 440 nM.
With `C[C@@H]1CN(c2cc(N3CC(C(=O)NC(C)(C)c4cnc5ccccn45)C3)c(Cl)cn2)CCN1C` [Example 103, 1-{5-chloro-2-[(3R)-3,4-dimethylpiperazin-1-yl]pyridin-4-yl}-N-(2-{imidazo[1,2-a]pyridin-3-yl}propan-2-yl)azetidine-3-carboxamide], the 50% effective concentration (EC50) in test [2] came to 5.3 nM.
For `C[C@@H]1CN(c2cc(N3CC(C(=O)NC(C)(C)c4cnc5ccccn45)C3)c(F)cn2)CCN1C` [Example 104, 1-{2-[(3R)-3,4-dimethylpiperazin-1-yl]-5-fluoropyridin-4-yl}-N-(2-{imidazo[1,2-a]pyridin-3-yl}propan-2-yl)azetidine-3-carboxamide], the concentration for a half-maximal effect (EC50) in test [2] turned out to be 35 nM.
On to `CN1CCN(c2cc(N3CC(C(=O)NC(C)(C)c4cnc5ccccn45)C3)c(Cl)cn2)CC1` [Example 105, 1-[5-chloro-2-(4-methylpiperazin-1-yl)pyridin-4-yl]-N-(2-{imidazo[1,2-a]pyridin-3-yl}propan-2-yl)azetidine-3-carboxamide], for which, in test [2], the EC50 was determined as 18 nM.
Turning to `C[C@H]1CN(C)CCN1c1ncc(Cl)c(N2CC(C(=O)N(C)Cc3cnc4ccccn34)C2)n1` [Example 106, 1-{5-chloro-2-[(2S)-2,4-dimethylpiperazin-1-yl]pyrimidin-4-yl}-N-{imidazo[1,2-a]pyridin-3-ylmethyl}-N-methylazetidine-3-carboxamide], in test [2], the EC50 is over 1000 nM.
Regarding `C[C@@H]1CN(c2ncc(Cl)c(N3CC(C(=O)NC(C)(C)c4cnc5ccccn45)C3)n2)[C@@H](C)CN1C` [Example 109, 1-{5-chloro-2-[(2S,5R)-2,4,5-trimethylpiperazin-1-yl]pyrimidin-4-yl}-N-(2-{imidazo[1,2-a]pyridin-3-yl}propan-2-yl)azetidine-3-carboxamide], the EC50 in test [2] turned out to be 120 nM.
`C[C@@H]1CN(c2ncc(Cl)c(N3CC(C(=O)NC(C)(C)c4cnc5ccccn45)C3)n2)[C@H](C)CN1C` [Example 110, 1-{5-chloro-2-[(2R,5R)-2,4,5-trimethylpiperazin-1-yl]pyrimidin-4-yl}-N-(2-{imidazo[1,2-a]pyridin-3-yl}propan-2-yl)azetidine-3-carboxamide]: in test [2], the EC50 was 66 nM.
Take `C[C@@H]1CN(c2ncc(F)c(N3CC(C(=O)NC(C)(C)c4cnc5ccccn45)C3)n2)[C@@H](C)CN1C` [Example 111, 1-{5-fluoro-2-[(2S,5R)-2,4,5-trimethylpiperazin-1-yl]pyrimidin-4-yl}-N-(2-{imidazo[1,2-a]pyridin-3-yl}propan-2-yl)azetidine-3-carboxamide]: in test [2], the concentration for a half-maximal effect (EC50) is 450 nM.
Turning to `CC(C)(NC(=O)C1CN(c2nc(N3CCCNCC3)nc3ccsc23)C1)c1cnc2ccccn12` [Example 123, 1-(2-(1,4-diazepan-1-yl)thieno[3,2-d]pyrimidin-4-yl)-N-(2-(Imidazo[1,2-a]pyridin-3-yl)propan-2-yl)azetidine-3-carboxamide], the IC50 at Human NMT1 (HsNMT1) was 8 nM.
`CN(C(=O)C1CN(c2nc(N3CCC(N)CC3)ncc2Cl)C1)C(C)(C)c1cnc2ccccn12` [Example 128, 1-(2-(4-aminopiperidin-1-yl)-5-chloropyrimidin-4-yl)-N-(2-(Imidazo[1,2-a]pyridin-3-yl)propan-2-yl)-N-methylazetidine-3-carboxamide] gave a 50% inhibitory concentration (IC50) at Human NMT1 (HsNMT1) of 234 nM.
With `CN(C(=O)C1CN(c2nc(N3CCCC(N)CC3)ncc2Cl)C1)C(C)(C)c1cnc2ccccn12` (stereo not shown) [Example 131, 1-(2-(4-aminoazepan-1-yl)-5-chloropyrimidin-4-yl)-N-(2-(imidazo[1,2-a]pyridin-3-yl)propan-2-yl)-N-methylazetidine-3-carboxamide], on Human NMT1 (HsNMT1), the half-maximal inhibitory concentration (IC50) was 179 nM.
For `CN(C(=O)C1CN(c2nc(N3CC4CC3CN4)ncc2Cl)C1)C(C)(C)c1cnc2ccccn12` (stereo not shown) [Example 132, 1-(2-(2,5-diazabicyclo[2.2.1]heptan-2-yl)-5-chloropyrimidin-4-yl)-N-(2-(imidazo[1,2-a]pyridin-3-yl)propan-2-yl)-N-methylazetidine-3-carboxamide], the half-inhibitory concentration (IC50) against Human NMT1 (HsNMT1) was found to be 190 nM.
`C[C@H]1CN(c2ncc(Cl)c(N3CC(C(=O)N(C)C(C)(C)c4cnc5ccccn45)C3)n2)CCN1C` [Example 140, (S)-1-(5-chloro-2-(3,4-dimethylpiperazin-1-yl)pyrimidin-4-yl)-N-(2-(imidazo[1,2-a]pyridin-3-yl)propan-2-yl)-N-methylazetidine-3-carboxamide] gave an IC50 against Human NMT1 (HsNMT1) of 146 nM.

As usually defined, the IC50 is the concentration needed to halve the response being measured. Low readings indicate greater potency in that assay, high ones weaker potency in that assay. Broadly, the EC50 is the concentration needed to bring the measured effect to its halfway point.
